Measured values from patent US6498945B1, “Sonodynamic therapy using an ultrasound sensitizer compound” (Amersham Health AS, priority 1997, dated 2002).
Entries after “also recorded” stand apart in the source; their conditions may differ. Where two headings read alike, the source gives them in different places. One block for each compound: values may come before it.

Assays:
[1] = cited from earlier work
[2] = system: HT-29 tumors; experiment: Biodistribution / tumor localization in immunodeficient mice with HT-29 tumors; conditions: female immunodeficient mice with HT-29 tumors
Source text: (§1) FIG. 2A is a graph of comparative biodistribution data of contrast agent Polymer 3 (NC100448) versus indocyanine green as control in female immunodeficient mice containing HT-29 tumors at one hour post intravenous injection of phosphate buffered saline solutions of each.
(§2) FIG. 2B is a graph of comparative biodistribution data of contrast agent Polymer 3 (NC100448) versus indocyanine green as control in female immunodeficient mice containing HT-29 tumors at three hours post intravenous injection of phosphate buffered saline solutions of each.

[3] = system: leucocytes (white blood cells); experiment: Fate in dog blood (confocal scanning microscope, flow cytometry); type: in vivo; conditions: injected into beagle dogs; flow cytometry and fluorescence microscopy
[4] = system: HT-29 tumors; conditions: mouse, in vivo
Source text: as §1, §2

[5] = molecular target: STa receptor (Homo sapiens, UniProt P25092); experiment: Competitive inhibition of the STa receptor; type: binding
STa receptor, sequence (P25092 24-1073, species assumed): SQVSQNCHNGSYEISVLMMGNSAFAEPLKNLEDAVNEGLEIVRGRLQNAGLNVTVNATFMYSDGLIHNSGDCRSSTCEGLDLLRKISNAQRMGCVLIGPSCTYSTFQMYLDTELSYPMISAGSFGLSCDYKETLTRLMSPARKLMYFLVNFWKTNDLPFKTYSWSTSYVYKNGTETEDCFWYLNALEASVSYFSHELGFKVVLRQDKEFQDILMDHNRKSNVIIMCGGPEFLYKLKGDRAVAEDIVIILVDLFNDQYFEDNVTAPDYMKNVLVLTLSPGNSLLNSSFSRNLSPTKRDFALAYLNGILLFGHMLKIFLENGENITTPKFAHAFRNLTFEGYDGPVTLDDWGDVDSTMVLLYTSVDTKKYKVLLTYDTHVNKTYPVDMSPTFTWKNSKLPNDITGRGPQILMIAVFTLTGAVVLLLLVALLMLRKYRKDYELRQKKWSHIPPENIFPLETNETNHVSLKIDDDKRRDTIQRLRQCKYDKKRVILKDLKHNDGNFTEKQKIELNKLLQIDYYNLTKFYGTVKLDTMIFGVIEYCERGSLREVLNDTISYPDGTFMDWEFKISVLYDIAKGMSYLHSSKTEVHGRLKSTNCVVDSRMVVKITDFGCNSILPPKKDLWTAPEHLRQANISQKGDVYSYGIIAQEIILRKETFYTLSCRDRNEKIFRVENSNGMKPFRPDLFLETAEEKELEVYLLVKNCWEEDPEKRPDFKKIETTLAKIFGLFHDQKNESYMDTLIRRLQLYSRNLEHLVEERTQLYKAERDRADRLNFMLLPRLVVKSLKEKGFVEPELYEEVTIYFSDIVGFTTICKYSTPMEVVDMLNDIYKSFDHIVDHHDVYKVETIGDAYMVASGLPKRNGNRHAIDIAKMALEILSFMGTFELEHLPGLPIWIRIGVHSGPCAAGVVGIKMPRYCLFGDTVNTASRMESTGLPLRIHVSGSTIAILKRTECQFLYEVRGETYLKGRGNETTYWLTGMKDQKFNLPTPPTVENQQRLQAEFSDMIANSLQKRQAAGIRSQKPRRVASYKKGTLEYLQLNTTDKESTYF
Procedure: Isolation and purification were done using the same HPLC conditions yielding about 0.1 mg yellow product. Ultra violet maxima in 1/1 water/methanol 10 mM ammonium acetate were: 202 nm (a 0.822), 277 nm (a 0.096), 457 nm (a 0.096), 482 nm (a 0.107). Mass spectrum (electrospray, negative): M−H 2359; M+Na 2381; theoretical M 2360.

[6] = system: HL-60 human peripheral blood promyelocytic leukemia cells; experiment: Sonication of HL-60 cell suspensions in vitro, cell death by Trypan Blue and LDH; type: cell-based; conditions: 148 nanomoles/ml, insonated 60 and 120 seconds, 65 volts, 47 kHz bath
Procedure: HL-60 human peripheral blood promyelocytic leukemia cells (American Type Culture Collection, Rockville, Md.) were grown at 37° C. in a 5% CO2/air atmosphere, in a 1:1 mixture of DMEM and IMEM fortified with 10% fetal bovine serum. Before use, the cells were centrifuged (5 min. at 1500 rpm), washed with phosphate buffered saline (PBS), and then resuspended in PBS, the volume being adjusted to provide cell suspensions containing […]. These were stored in crushed ice until used.
Viability was assessed by staining with Trypan Blue dye. 50 μl of the suspension were mixed with […] Trypan Blue solution (0.4%, Sigma), and the cell concentration counted using a Neubauer-type hemocytometer. Four or five large squares were counted, the blue (dead) cells being counted separately from the unstained (live) cells, and the results averaged. […]
For insonation, the voltage was set to the required value, the power was turned on, and the sample exposed for the required amount of time (secs.). Viability was again assessed with Trypan Blue, the samples were then centrifuged for 5 minutes at 2000 rpm, and a sample of cell free supernatant liquid taken for lactate dehydrogenase (LDH) measurement. […] The LDH was measured by a standard procedure using a Beckman Synchron CX5CE Instrument, the results were measured in IU/l, and afforded a quantitative measurement of cell death in the samples. […]

melting point: 238 to 240 °C
Compound: CCOC(=O)c1c(I)c(NS(=O)(=O)c2cccc3c(N(C)C)cccc23)c(I)c(N(CC)C(C)=O)c1I [Example 52, Ethyl 3-(N-Acetyl-N-ethylamino)-5-[(5-dimethylamino-1-naphthylsulfonyl)amino]-2,4,6-triiodobenzoate]

Compound: Oc1ccc2ccccc2c1N=Nc1ccc(N=Nc2ccccc2)cc1 [Sudan III]
solubility in sesame oil ([1]; sesame oil): soluble in sesame oil | solubility in water ([1]; water): very insoluble in water

detection in the tumor (FIG. 2A) ([2]; one hour post intravenous injection, PBS solution): negligibly detected | detection in the tumor (FIG. 2B) ([2]; three hours post intravenous injection, PBS solution): negligibly detected
Compound: CC1(C)C(/C=C/C=C/C=C/C=C2\N(CCCCS(=O)(=O)O)c3ccc4ccccc4c3C2(C)C)=[N+](CCCCS(=O)(=O)[O-])c2ccc3ccccc3c21 [indocyanine green]

Compound: Air-exposed-Tetronic-908-conjugated-to-fluorescein Isothiocyanate
binding to blood cells [3]: binds to a specific cell class within the blood; also recorded: attached to leucocytes (white blood cells)

Compound: ClAlPc(SO2NHPEG5000)4 [Example 45]
injected dose localized in the tumor after one hour [4]: 2.5 % of the injected dose

Compound: Thiourea Linked 5-fluorescein to STa (syn. 2) [Example 79]
competitive inhibitor of the STa receptor [5]: tested positive

injected dose localized in the tumor after one hour [4]: 0.1 % of the injected dose
Compound: [Melamine][SO2ClAlPc(SO3H)3]3 [Example 46]

Compound: [NH(PEG3400)NHSO2PcAlCl(SO3H)2SO2]n [Example 43]
injected dose localized in the tumor after one hour [4]: 4 % of the injected dose

Compound: bisthioether 2:1 dye:polymer reaction product between 2-[2-[2-chloro-3-[[1,3-dihydro-1,1,-dimethyl-3-(3-sulfopropyl)-2H-benz[e]indol-2-ylidene]ethylidene]-5-(ethoxycarbonyl)-1-cyclohexen-1-yl]ethenyl]-1,1-dimethyl-3-(3-sulfopropyl)-1H-benz[e]indolium, inner salt, sodium salt and disodium PEG3,400-α,ω-dithiolate [Polymer 3]
concentration in the blood at three hours relative to one hour [4]: decreased | concentration in the tumor at three hours relative to one hour [4]: increased | detection in the tumor (FIG. 2A) ([4]; iv): detected in the tumor | detection in the tumor (FIG. 2B) ([4]; iv): detected in the tumor

Compound: chloroaluminum phthalocyanine tetrasulfonate
cell killing under ultrasound (FIG. 1) [6]: Enhancement of Cell Killing

Compound: copolymer of PEG3400-α,ω-diamine and aluminum(III)phthalocyanine tetrasulfonyl chloride [Example 1]
injected dose localized in the tumor after one hour ([2]; solution in phosphate buffered saline injected, one hour): 4 % of the injected dose

Compound: copolymer of PEG 5000-α,ω-diamine and aluminum(III)phthalocyanine tetrasulfonyl chloride [Example 4]
injected dose localized in the tumor after one hour [4]: 2.5 % of the injected dose

injected dose localized in the tumor after one hour [4]: 0.1 % of the injected dose
Compound: copolymer of melamine and aluminum(III)phthalocyanine tetrasulfonyl chloride [Example 5]
